Measurements as given in PMC9148287, “Cytotoxic and Radiosensitising Effects of a Novel Thioredoxin Reductase Inhibitor in Brain Cancers” (Molecular Neurobiology, 2022).

Key:
KNS42 cells [1] = assay: Growth assay (cell counts); format: cell-based; conditions: Homo sapiens, KNS-42, 2D normoxia
Protocol: (§1) Cells (2 × 10^5) were seeded in six-well plates, allowed to adhere overnight and then treated, in triplicate, with different concentrations of TMZ (0–1000 μM) or IQ10 (0–1 µM) for up to 72 h under normoxic or hypoxic conditions. DMSO was added to the negative control groups at the same volume equivalent to that in the treatment groups. For hypoxic experiments, cells were pre-incubated at 1% O2 for 24 h prior to drug treatment. Cells were then treated with different concentrations of IQ10 for up to an additional 72 h under hypoxia. Normoxic controls were always assessed in parallel to hypoxic-treated groups. Every 24 h after initiating drug treatment, cells were trypsinised and counted using a Countess system. Cell counts were recorded, analysed and plotted over the 72 h period.

SNB19 cells [2] = assay: Growth assay (cell counts); format: cell-based; conditions: Homo sapiens, SNB-19, 2D normoxia
Protocol: as §1

UW228-3 cells [3] = assay: Growth assay (cell counts); format: cell-based; conditions: Homo sapiens, 2D normoxia
Protocol: as §1

DAOY cells [4] = assay: Growth assay (cell counts); format: cell-based; conditions: Homo sapiens, 2D normoxia
Protocol: as §1
(§2) Cells were seeded, in triplicate, in 24-well plates, incubated overnight and transfected with either a pre-designed siRNA directed against human TrxR-1 (SI00050876, target sequence, 5′-[…]-3′, Qiagen) or mock-transfected with a scrambled siRNA (Allstars Negative Control siRNA, Qiagen). Briefly, 2.5 μL of 2 μM siRNA and 4.5 μL HiPerFect transfection reagent (Qiagen) were combined in 100 μL medium (serum and antibiotic free) and incubated at room temperature for 10 min to allow complex formation. Reaction mixtures were then added to 400 μL of fresh medium. Medium was aspirated from wells and replaced with the appropriate 500 μL of transfection solution. After 48 h of incubation, the cells were re-plated, allowed to adhere overnight and treated with various concentrations of IQ10 for an additional 48 h. Growth curve and/or clonogenic survival assays were used as the endpoint to assess the drug effects. Western blotting analysis of TrxR and β-actin (as a loading control) were used to confirm that TrxR expression was suppressed for the duration of the experiment.

SF188 cells [5] = assay: Growth assay (cell counts); format: cell-based; conditions: Homo sapiens, SF-188, 2D normoxia
Protocol: as §1, §2

KNS42 cells [6] = assay: Clonogenic survival assay; format: cell-based; conditions: Homo sapiens, KNS-42; KNS42, 48 h post-treatment
Protocol: (§3) Cells collected from the growth assay (48 h time point) were counted and plated at low-density, in triplicate, and incubated at 37 °C, 5% CO2, undisturbed, for colony formation. After 12 days (21 days for KNS42), colonies were fixed (50% methanol in PBS), stained (0.5% crystal violet solution) and counted manually. Any cluster of cells greater than 50 in number was counted as a surviving colony. The plating efficiency (PE) was calculated as number of control colonies formed/number of control cells seeded. For single-agent treatment, drug or radiation, the surviving fraction (SF) was calculated as follows: number of colonies formed after treatment / (number of cells seeded × PE). For drug radiation combination experiments, cytotoxicity of drug treatment was accounted for by calculating SF as follows: number of colonies formed from each radiation dose / (number of cells seeded × PE × SF of drug-treated cell at 0 Gy).

SNB19 cells [7] = assay: Clonogenic survival assay; format: cell-based; conditions: Homo sapiens, SNB-19; SNB19, 48 h post-treatment
Protocol: as §3

DAOY cells [8] = assay: Clonogenic survival assay; format: cell-based; conditions: Homo sapiens, 48 h post-treatment
Protocol: as §3, with “For drug radiation combination experiments, cytotoxicity of drug treatment was accounted for by calculating SF as follows: number of colonies formed from each radiation dose / (number of cells seeded × PE × SF of drug-treated cell at 0 Gy).” left out
(§4) Cells were seeded in ultra-low attachment round-bottom 96-well plates (Corning), aggregated by centrifugation (2000 rpm/10 min), and allowed to grow for 4 days under standard culture conditions to form mature spheroids. […] Viability was assessed using the resazurin reduction assay (CellTiter-Blue, Promega) following the manufacturer’s protocol. […] Fluorescence was measured with an excitation wavelength of 560 nm and emission 590 nm on a plate reader. […] Six spheroids per condition were assessed in each experiment. The clonogenicity of cells cultured in spheroids was assessed using conventional 2D clonogenic survival assay as described above. […]

UW228-3 cells [9] = assay: Clonogenic survival assay; format: cell-based; conditions: Homo sapiens; UW228-3, 48 h post-treatment
Protocol: as §3, with “For drug radiation combination experiments, cytotoxicity of drug treatment was accounted for by calculating SF as follows: number of colonies formed from each radiation dose / (number of cells seeded × PE × SF of drug-treated cell at 0 Gy).” left out
as §4

SF188 cells [10] = assay: Clonogenic survival assay; format: cell-based; conditions: Homo sapiens, SF-188; SF188, 48 h post-treatment
Protocol: as §3
Cells were seeded, in triplicate, in 24-well plates, incubated overnight and transfected with either a pre-designed siRNA directed against human TrxR-1 (SI00050876, target sequence, 5′-[…]-3′, Qiagen) or mock-transfected with a scrambled siRNA (Allstars Negative Control siRNA, Qiagen). […]

DAOY cells [11] = assay: Intracellular ROS levels (H2DCF-DA flow cytometry); format: cell-based, human; conditions: 1 mM H2O2 1 h
Protocol: (§5) Intracellular ROS levels were measured as described previously. Briefly, cells were treated with various concentrations of IQ10 for 4 h either alone or with subsequent exposure to 1 mM H2O2 (ROS positive control) for 1 h. Cells treated with DMSO, at the same dilution ratio as IQ10, were set as negative controls. Cells were then incubated with the cell-permeable dye 2′,7 ′-dichlorodihydrofluorescein diacetate (H2DCF-DA, Sigma) in fresh medium at a final concentration of 1 μM at 37 °C for 30 min. Cells were harvested and intracellular ROS levels assessed by measurement of fluorescence using a MACSquant flow cytometer (Miltenyi Biotec). A gate was set to include only healthy living cells in the analysis. Data were analysed using FlowJo 7.6.1 software (Tree Star) to obtain the median fluorescence intensity (MFI) of each group representing the amount of intracellular ROS generation.

UW228-3 cells [12] = assay: Intracellular ROS levels (H2DCF-DA flow cytometry); format: cell-based, human; conditions: UW228-3, 1 mM H2O2 1 h
Protocol: as §5

TrxR [13] = molecular target: T1, TrxR (Homo sapiens, UniProt Q16881); assay: TrxR activity assay (endpoint insulin reduction) on lysates of drug-treated cells; format: cell-based; conditions: 1 μM, 4 h; SF188, DAOY and UW228-3 cells
T1 construct: cells were trypsinised, counted and lysed in M-PER protein extraction reagent; endogenous in cells; host or cells: SF188, DAOY, UW228-3
T1 sequence (Q16881 151-649 limits assumed): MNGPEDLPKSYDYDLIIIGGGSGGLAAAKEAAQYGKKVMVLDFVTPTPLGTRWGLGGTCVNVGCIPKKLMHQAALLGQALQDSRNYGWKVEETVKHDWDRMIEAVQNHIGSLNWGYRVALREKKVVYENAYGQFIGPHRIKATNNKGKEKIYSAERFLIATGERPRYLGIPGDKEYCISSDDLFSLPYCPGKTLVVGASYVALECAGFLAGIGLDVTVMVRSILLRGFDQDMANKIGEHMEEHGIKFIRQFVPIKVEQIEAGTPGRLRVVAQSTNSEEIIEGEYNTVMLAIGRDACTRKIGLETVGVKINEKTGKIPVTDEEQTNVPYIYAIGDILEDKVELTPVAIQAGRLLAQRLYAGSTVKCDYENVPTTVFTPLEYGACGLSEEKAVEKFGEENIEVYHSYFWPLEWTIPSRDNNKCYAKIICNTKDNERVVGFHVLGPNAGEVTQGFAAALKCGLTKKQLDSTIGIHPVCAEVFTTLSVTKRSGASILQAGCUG
Protocol: Following incubation, with various concentrations of IQ10 or with 1 μM of auranofin, for 4/48 h, cells were trypsinised, counted and lysed in M-PER protein extraction reagent (Thermo Fisher) for 20 min. Lysates were analysed immediately or stored for future use at − 80 °C. The Bio-Rad protein assay kit (Bio-Rad Laboratories) was used to measure the protein concentration of each sample. TrxR activity was measured in 96-well plates using the endpoint insulin reduction assay as described previously with appropriate modifications. Briefly, the assay mixture contained the following in a final volume of 100 μL HE buffer (100 mM HEPES, pH 7.2; 5 mM EDTA): 80 µg of protein, 2 µM Escherichia coli Trx, 1 mg/ml bovine insulin and 1 mM NADPH. Duplicate samples were used, either with or without exogenous Trx enzyme. […] Absorbance was measured at 405 nm using a microplate reader (FLUOstar OPTIMA, BMG LABTECH). The absorbance of the sample lacking exogenous Trx was subtracted from that of the corresponding sample containing exogenous Trx. The difference in absorbance indicates TrxR function. The amount of functional TrxR was calculated from the standard curve, generated simultaneously, with pure enzymes. The TrxR activity was expressed as the percentage of DMSO-treated control.

TrxR [14] = test system: TrxR; parameters: method as in PMID 17320769; conditions: ovarian cancer cells; cited from earlier work

SMILES: Cn1nnc2c(C(N)=O)ncn2c1=O [TMZ, temozolomide]
- IC50 (KNS42 cells [1]; KNS42, 24 h): > 1000 µM
- IC50 (KNS42 cells [1]; KNS42, 48 h): > 1000 µM
- IC50 (KNS42 cells [1]; KNS42, 72 h): 731 ± 24.3 µM
- IC50 (SNB19 cells [2]; SNB19, 24 h): > 1000 µM
- IC50 (SNB19 cells [2]; SNB19, 48 h): > 1000 µM
- IC50 (SNB19 cells [2]; SNB19, 72 h): 980 ± 281 µM
- IC50 (UW228-3 cells [3]; UW228-3, 24 h): > 1000 µM
- IC50 (UW228-3 cells [3]; UW228-3, 48 h): 314 ± 17.8 µM
- IC50 (UW228-3 cells [3]; UW228-3, 72 h): 148 ± 14.7 µM
- IC50 (DAOY cells [4]; 24 h): 547 ± 11.6 µM
- IC50 (DAOY cells [4]; 48 h): 248 ± 49.8 µM
- IC50 (DAOY cells [4]; 72 h): 162 ± 14.3 µM
- IC50 (SF188 cells [5]; SF188, 24 h): > 1000 µM
- IC50 (SF188 cells [5]; SF188, 48 h): 321 ± 86.8 µM
- IC50 (SF188 cells [5]; SF188, 72 h): 188 ± 24.1 µM
- IC50 (KNS42 cells [6]): 49.5 ± 11.4 µM
- IC50 (SNB19 cells [7]): 63.7 ± 10 µM
- IC50 (DAOY cells [8]): 464 ± 20.1 µM
- IC50 (UW228-3 cells [9]): 93.1 ± 30 µM
- IC50 (SF188 cells [10]): 15.2 ± 0.9 µM

SMILES: OO [H2O2]
- intracellular ROS levels compared to control (DAOY cells [11]): 1.4 fold
- intracellular ROS levels compared to control (UW228-3 cells [12]): 1.5 fold

SMILES: CC(=O)OC[C@H]1O[C@@H]([S-])[C@H](OC(C)=O)[C@@H](OC(C)=O)[C@@H]1OC(C)=O.CCP(CC)CC.[Au+] [auranofin]
- average TrxR inhibition (TrxR [13]): 83–95%
- concentrations inhibiting TrxR (TrxR [14]): nanomolar concentrations
